For series [1], the system named is human amelanotic melanoma cell line (LOX). As to the kind of experiment: Apoptosis assay (Vybrant Apoptosis Assay Kit #4, YO-PRO). The class given is cell-based. The conditions noted are these: LOX cells, overnight incubation; dosages 10^−12 to 10^−3 M; n=4. As for the experimental part: An apoptosis assay marketed as Vybrant Apoptosis Assay Kit #4 from Molecular Probes, Inc., was obtained for the test. […] The apoptosis assay was performed four times (n=4) for each test compound.

Series [2] has the same test system. In words: Collagen degradation inhibition assay (fluorescent-labeled Type I collagen matrix seeded with LOX cells). The class given is cell-based. The conditions noted are these: LOX cells on Type I collagen matrix, dosages 10^−12 to 10^−3 M, n=4.
For series [3] the test system is unchanged. As to the method: A live cell toxicity assay marketed as LIVE/DEAD Viability/Cytotoxicity Kit by Molecular Probes, Inc. of Eugene, Oreg., was obtained for the test. The assays were carried out in accordance with the manufacturers' instructions using the LOX cells. The LOX cells (10^4/well) were cultured and incubated in a carbon dioxide incubator at 37° C. overnight and then gently washed with PBS.
Calcein Am (2 μM), a fluorescent dye available from Molecular Probes, Inc. for staining live cells, was added to the LOX cells. The Calcein-stained LOX cells were incubated at room temperature for about an hour. […] A positive fluorescence signal from the assay indicates the presence of viable cells in the test sample with the strength of the signal being proportional to the number of viable cells present.
The live cell toxicity assay was carried out four times (n=4) for each test compound.

As a reminder, the IC50 is the concentration at which inhibition is half-maximal. The low end stands for greater potency in that assay, the high end for weaker potency in that assay. For `CCCCC[C@@H](O)CC[C@H]1[C@H](O)CC2Cc3c(cccc3OCC(=O)O)C[C@@H]21` (stereo partly drawn) [compound of Formula II, 9-Deoxy-2′,9α-methano-3-oxa-4,5,6-trinor-3,7-(1′,3′-interphenylene)-13,14-dihydro-PGF1], in series [1], the “dosage at which a marked increase in the incidence of apoptosis was seen” value is “over 10^−4 M”. Half-maximal inhibition in series [2] (Homo sapiens) (IC50) was put at 10 nM. Besides, the “dosage at which collagen degradation activity by LOX cells was inhibited (lowest effective dosage)” value in series [2] came out at 2.5 nM. In series [3], the “dosage at which cell toxicity / inhibited cell viability was exhibited” value was “over 10^−6 M”.
